# Assay results: ChEMBL document CHEMBL1909294, “Translating clinical findings into knowledge in drug safety evaluation--drug induced liver injury prediction system (DILIps)” (PLoS Comput Biol, 2011)
# What was measured:
# [1] = tested on: Hepatotoxicity;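 on HepSE Combined Scores: combined hepatic side effect score as listed in the training data of the Drug Induced Liver Injury Prediction System (DILIps)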;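 on HepSE cholelithiasis: hepatic side effect score for cholelithiasis, drawn from the DILIps training data for predicting drug-induced liver injury; call rule not given here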;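 on HepSE cirrhosis: cirrhosis hepatic side effect score taken from the DILIps (drug-induced liver injury prediction) training set; call rule not given here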;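 on HepSE hepatic necrosis: score of hepatic side effects for hepatic necrosis, drawn from the training data of DILIps, a prediction system for drug-induced liver injury; call rule not given here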;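 on HepSE hepatomegaly: hepatic side effect score for hepatomegaly, taken from the training set of the DILIps drug-induced liver injury prediction system; call rule not given here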;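 on HepSE liver function tests abnormal: hepatic side effect score taken from the DILIps (drug-induced liver injury prediction system) training data, here covering abnormal liver function test findings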
# [2] = tested on: Hepatotoxicity; remark: listed apart in the source;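 on HepSE Combined Scores: combined hepatic side effect score as listed in the training data of the Drug Induced Liver Injury Prediction System (DILIps)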;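 on HepSE cholelithiasis: hepatic side effect score for cholelithiasis, drawn from the DILIps training data for predicting drug-induced liver injury; call rule not given here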;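 on HepSE cirrhosis: cirrhosis hepatic side effect score taken from the DILIps (drug-induced liver injury prediction) training set; call rule not given here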;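 on HepSE hepatic necrosis: score of hepatic side effects for hepatic necrosis, drawn from the training data of DILIps, a prediction system for drug-induced liver injury; call rule not given here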;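 on HepSE hepatomegaly: hepatic side effect score for hepatomegaly, taken from the training set of the DILIps drug-induced liver injury prediction system; call rule not given here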;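 on HepSE liver function tests abnormal: hepatic side effect score taken from the DILIps (drug-induced liver injury prediction system) training data, here covering abnormal liver function test findings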
# [3] = tested on: Hepatotoxicity; remark: listed apart in the source;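 on HepSE Combined Scores: combined hepatic side effect score as listed in the training data of the Drug Induced Liver Injury Prediction System (DILIps)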;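 on HepSE cholelithiasis: hepatic side effect score for cholelithiasis, drawn from the DILIps training data for predicting drug-induced liver injury; call rule not given here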;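 on HepSE cirrhosis: cirrhosis hepatic side effect score taken from the DILIps (drug-induced liver injury prediction) training set; call rule not given here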;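 on HepSE hepatic necrosis: score of hepatic side effects for hepatic necrosis, drawn from the training data of DILIps, a prediction system for drug-induced liver injury; call rule not given here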;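 on HepSE hepatomegaly: hepatic side effect score for hepatomegaly, taken from the training set of the DILIps drug-induced liver injury prediction system; call rule not given here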;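 on HepSE liver function tests abnormal: hepatic side effect score taken from the DILIps (drug-induced liver injury prediction system) training data, here covering abnormal liver function test findings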
# [4] = tested on: Hepatotoxicity; remark: listed apart in the source;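 on HepSE Combined Scores: combined hepatic side effect score as listed in the training data of the Drug Induced Liver Injury Prediction System (DILIps)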;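 on HepSE cholelithiasis: hepatic side effect score for cholelithiasis, drawn from the DILIps training data for predicting drug-induced liver injury; call rule not given here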;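 on HepSE hepatic necrosis: score of hepatic side effects for hepatic necrosis, drawn from the training data of DILIps, a prediction system for drug-induced liver injury; call rule not given here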;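 on HepSE hepatomegaly: hepatic side effect score for hepatomegaly, taken from the training set of the DILIps drug-induced liver injury prediction system; call rule not given here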;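 on HepSE liver function tests abnormal: hepatic side effect score taken from the DILIps (drug-induced liver injury prediction system) training data, here covering abnormal liver function test findings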
# [5] = tested on: Hepatotoxicity; remark: listed apart in the source
# [6] = tested on: Hepatotoxicity; remark: listed apart in the source
# [7] = tested on: Hepatotoxicity; remark: listed apart in the source
# [8] = tested on: Hepatotoxicity; remark: listed apart in the source
# [9] = tested on: Hepatotoxicity; remark: listed apart in the source
# [10] = tested on: Hepatotoxicity; remark: listed apart in the source
# [11] = tested on: Hepatotoxicity; remark: listed apart in the source
# [12] = tested on: Hepatotoxicity; remark: listed apart in the source
# [13] = tested on: Hepatotoxicity; remark: listed apart in the source
# [14] = tested on: Hepatotoxicity; remark: listed apart in the source
SMILES,HepSE_liver function tests abnormal ([3]; Liver),HepSE_elevated liver function tests ([9]; Liver),HepSE_hepatic necrosis [1],HepSE_bilirubinemia [2],HepSE_liver function tests abnormal [3],HepSE_Combined Scores [4],HepSE_cholelithiasis [5],HepSE_hepatomegaly [6],HepSE_cirrhosis [7],HepSE_hepatitis [8],HepSE_elevated liver function tests [9],HepSE_hepatic failure [10],HepSE_liver fatty [11],HepSE_cholecystitis [12],HepSE_jaundice [13],HepSE_liver disease [14],also measured
OC(CCN1CCCCC1)(c1ccccc1)C1CCCCC1 (configuration not stated) [TRIHEXYPHENIDYL],0,0,,,,,,,,,,,,,,,HepSE_hepatic necrosis ([1]; Liver): 0; HepSE_bilirubinemia ([2]; Liver): 0; HepSE_Combined Scores ([4]; Liver): 0; HepSE_cholelithiasis ([5]; Liver): 0; HepSE_hepatomegaly ([6]; Liver): 0; HepSE_cirrhosis ([7]; Liver): 0; HepSE_hepatitis ([8]; Liver): 0; HepSE_hepatic failure ([10]; Liver): 0; HepSE_liver fatty ([11]; Liver): 0; HepSE_cholecystitis ([12]; Liver): 0; HepSE_jaundice ([13]; Liver): 0; HepSE_liver disease ([14]; Liver): 0
COc1cc(Cc2cnc(N)nc2N)cc(OC)c1OC [TRIMETHOPRIM],0,0,,,,,,,,,,,,,,,HepSE_hepatic necrosis ([1]; Liver): 0; HepSE_bilirubinemia ([2]; Liver): 0; HepSE_Combined Scores ([4]; Liver): 1; HepSE_cholelithiasis ([5]; Liver): 0; HepSE_hepatomegaly ([6]; Liver): 0; HepSE_cirrhosis ([7]; Liver): 0; HepSE_hepatitis ([8]; Liver): 0; HepSE_hepatic failure ([10]; Liver): 0; HepSE_liver fatty ([11]; Liver): 0; HepSE_cholecystitis ([12]; Liver): 0; HepSE_jaundice ([13]; Liver): 1; HepSE_liver disease ([14]; Liver): 0
COc1cc(NCc2ccc3nc(N)nc(N)c3c2C)cc(OC)c1OC [TRIMETREXATE],,,0,0,0,0,0,0,0,0,0,0,0,0,0,0,
CC(CN(C)C)CN1c2ccccc2CCc2ccccc21 (configuration not stated) [TRIMIPRAMINE],,,0,0,0,1,0,0,0,0,0,0,0,0,1,0,
Cc1c(C)c2c(c(C)c1O)CCC(C)(COc1ccc(CC3SC(=O)NC3=O)cc1)O2 (configuration not stated) [TROGLITAZONE],,,0,0,1,3,0,0,0,1,0,0,0,0,1,0,
NC(CO)(CO)CO [TROMETHAMINE],0,0,,,,,,,,,,,,,,,HepSE_hepatic necrosis ([1]; Liver): 0; HepSE_bilirubinemia ([2]; Liver): 0; HepSE_Combined Scores ([4]; Liver): 0; HepSE_cholelithiasis ([5]; Liver): 0; HepSE_hepatomegaly ([6]; Liver): 0; HepSE_cirrhosis ([7]; Liver): 0; HepSE_hepatitis ([8]; Liver): 0; HepSE_hepatic failure ([10]; Liver): 0; HepSE_liver fatty ([11]; Liver): 0; HepSE_cholecystitis ([12]; Liver): 0; HepSE_jaundice ([13]; Liver): 0; HepSE_liver disease ([14]; Liver): 0
CCN(Cc1ccncc1)C(=O)C(CO)c1ccccc1 (configuration not stated) [TROPICAMIDE],0,0,0,0,,0,0,0,0,0,,0,0,0,0,0,
O=C(O[C@H]1C[C@H]2CC[C@@H](C1)[N+]21CCCC1)C(O)(c1ccccc1)c1ccccc1.[Cl-] [TROSPIUM CHLORIDE],,,0,0,0,0,0,0,0,0,0,0,0,0,0,0,
N[C@@H]1[C@H]2CN(c3nc4c(cc3F)c(=O)c(C(=O)O)cn4-c3ccc(F)cc3F)C[C@@H]12 [TROVAFLOXACIN],,,1,1,0,5,0,0,0,1,0,1,0,0,1,0,
N[C@@H](Cc1c[nH]c2ccccc12)C(=O)O [TRYPTOPHAN],,,0,0,0,0,0,0,0,0,0,0,0,0,0,0,
CCCCCCCC(=O)CC[C@@H]1[C@@H](C/C=C\CCCC(=O)O)[C@@H](O)C[C@H]1O [UNOPROSTONE],,,0,0,0,0,0,0,0,0,0,0,0,0,0,0,
C[C@H](CCC(=O)O)[C@H]1CC[C@H]2[C@@H]3[C@@H](O)C[C@@H]4C[C@H](O)CC[C@]4(C)[C@H]3CC[C@]12C [URSODIOL],,,0,0,0,1,0,0,0,0,0,0,0,1,0,0,
CC(C)[C@H](N)C(=O)OCCOCn1cnc2c(=O)[nH]c(N)nc21 [VALACYCLOVIR],,,0,0,0,1,0,0,0,1,0,0,0,0,0,0,
